Reference: patent publication US11266609B2, “Bacitracin and/or daptomycin combined with cannabidiol for treatment of bacterial infections” (priority 2017, dated 2022)
pIC50: −log10 of the molar value. Values after ≈ are worked out from the molar mass of the structure shown.

How the values were obtained:
MRSA USA300 FPR3757 = test: microbe, parasite or virus in culture; type: cell-based, Staphylococcus aureus; conditions: for FIC Index: WT USA300, combination of cannabidiol with the respective antibiotic, synergy <= 0.5, no interaction 0.5-4.0, antagonism > 4
Procedure: (§1) The resistant bacterium MRSA USA300 FPR3757 (USA300) was the main used bacterium throughout this study. MRSA was grown in Brain Heart Infusion (BHI) or Müeller Hinton (MH) media on plate or in liquid cultures with agitation at 37° C.
An ON culture was made by inoculating a bacterial colony in either 5 mL of MH or BHI and incubating at 37° C. with agitation. The antibiotic of interest was added to a row of a sterile 96-well plate (VWR) and a serial dilution was made down the rows containing 50 μL of MH or BHI media in each well, resulting in 2-fold dilution for each row. The ON culture was diluted to OD625 at approximately 1.0 followed by a 1:100 dilution to approximately OD625=0.01 of which 50 μL was added to each well to a final volume of 100 μL. The 96-well plate was incubated at 37° C. with shaking at 225 rpm for approximately 18-24 hours. Presence and absence of growth were determined by visual appearance.
B) The other screen was based on fractional inhibitory concentration (FIC) index.

MRSA USA300 = test: Micro dilution growth experiments using oCelloScope, CBD combined with antibiotics (FIG. 1); type: cell-based, Staphylococcus aureus; conditions: for synergistic potential in growth curves: combination with CBD 1-2 μg/mL, bacitracin 16, daptomycin 4, tetracycline 16, fosfomycin 16, dicloxacillin 0.0625, chlorhexidine 0.25, vancomycin 0.5 μg/mL (FIG. 1)
Procedure: BCA: Background corrected absorption. ? Growth control, ? CBD, -▴- Antibiotic, ? Combination.
as §1
An ON culture was made by inoculating a bacterial colony in either 5 mL of MH or BHI at incubated at 37° C. with agitation. 25 μL of specific concentrations of the antibiotic and cannabinoid to be tested was added to the desired wells of a sterile 96-well plate (Thermo Scientific). 25 μL of MH or BHI media was added to the wells only containing one of the two compounds tested. The bacterial ON culture was diluted to a final OD600 nm of 0.005 and 50 μL was dispensed into each well to a final volume of 100 μL. To decrease evaporation, 2 mL of pre-heated water was added to the corners of the 96-well plate containing cavities. The plate was placed in the oCelloScope inside an incubator at 37° C. Illumination level and focus was adjusted for each well and the growth was measured for approximately 25 hours. Measurements were performed every half an hour for the first half of the time and every hour for the last half using the UniExplorer software. Data retrieved was given in Background corrected absorption (BCA), formerly known as pixel histogram summation (PHS), an algorithm enabling determination of bacterial growth kinetics resulting from images taken with the oCelloScope camera.
A) A screen was performed using the Philips oCelloScope enabling measurements of bacterial growth in presence or absence of either cannabidiol alone or in combination with an antibiotic or antimicrobial, through a 3D scanning system in 96-well plates.

[1] = molecular target: T1, bacterial undecaprenyl pyrophosphate (UPP) synthase (Staphylococcus aureus, UniProt P60477); conditions: The Journal of Antibiotics 69, 798-805 (2016); cited from earlier work
T1 sequence (P60477 1-256): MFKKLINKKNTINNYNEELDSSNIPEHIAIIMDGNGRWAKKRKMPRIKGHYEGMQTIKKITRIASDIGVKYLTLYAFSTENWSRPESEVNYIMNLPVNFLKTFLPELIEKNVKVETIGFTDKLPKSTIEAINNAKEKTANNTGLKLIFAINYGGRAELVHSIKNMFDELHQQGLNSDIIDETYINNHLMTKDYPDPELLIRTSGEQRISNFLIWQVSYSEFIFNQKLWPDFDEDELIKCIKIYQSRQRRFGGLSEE

[2] = tested on: Gram-positive bacteria including methicillin-resistant Staphylococcus aureus (MRSA); conditions: particularly against Gram-positive bacteria including MRSA; cited from earlier work

## CCCCCc1cc(O)c2c(c1)OC(C)(CCC=C(C)C)C=C2 (stereo not shown) [Cannabichromene (CBC), Cannabichromene]
MRSA USA300 FPR3757; USA300
  FIC index (with bacitracin): 0.63
  FIC index (with daptomycin): 0.63
MRSA USA300 FPR3757; USA300, Table 4, unit not given
  MIC: 4

## [H]/N=C(\N/C(=N/[H])NCCCCCCNC(=N)NC(=N)Nc1ccc(Cl)cc1)Nc1ccc(Cl)cc1 [Chlorhexidine]
MRSA USA300 FPR3757; Staphylococcus aureus
  MIC: 1 to 2 µg/mL (≈ 1.98 to 3.96 µM)
MRSA USA300 FPR3757
  FIC Index: 1
MRSA USA300
  synergistic potential in growth curves: no synergistic potential

## COc1cc(O)c2c(O)c3c(c4c2c1C1(C4)C(C)=CCCC1(C)C)C(O)C1(O)CC(=O)C(C(C)=O)=C(O)C1(O)C3=O (stereo not shown) [Spirohexaline]
[1]
  pIC50: 5.05
[2]
  antimicrobial activity: showed antimicrobial activity

## CCCCCCCCCC(=O)N[C@@H](Cc1c[nH]c2ccccc12)C(=O)N[C@H](CC(N)=O)C(=O)N[C@@H](CC(=O)O)C(=O)N[C@@H]1C(=O)NCC(=O)N[C@@H](CCCN)C(=O)N[C@@H](CC(=O)O)C(=O)N[C@H](C)C(=O)N[C@@H](CC(=O)O)C(=O)NCC(=O)N[C@H](CO)C(=O)N[C@@H]([C@H](C)CC(=O)O)C(=O)N[C@@H](CC(=O)c2ccccc2N)C(=O)O[C@@H]1C [Daptomycin]
MRSA USA300 FPR3757; USA300
  MIC: 16 µg/mL (≈ 9.87 µM)
MRSA USA300
  synergistic potential in growth curves: to some degree

## CN[C@H](CC(C)C)C(=O)N[C@H]1C(=O)N[C@@H](CC(N)=O)C(=O)N[C@H]2C(=O)N[C@H]3C(=O)N[C@H](C(=O)N[C@H](C(=O)O)c4cc(O)cc(O)c4-c4cc3ccc4O)[C@H](O)c3ccc(c(Cl)c3)Oc3cc2cc(c3O[C@@H]2O[C@H](CO)[C@@H](O)[C@H](O)[C@H]2O[C@H]2C[C@](C)(N)[C@H](O)[C@H](C)O2)Oc2ccc(cc2Cl)[C@H]1O [Vancomycin]
MRSA USA300 FPR3757; Staphylococcus aureus
  MIC: 2 µg/mL (≈ 1.38 µM)
MRSA USA300 FPR3757
  FIC Index: 2
MRSA USA300
  synergistic potential in growth curves: no synergistic potential

## C[C@@H]1O[C@@H]1P(=O)(O)O [Fosfomycin]
MRSA USA300 FPR3757; Staphylococcus aureus
  MIC: 32 µg/mL (≈ 232 µM)
MRSA USA300; combination with CBD 1 μg/mL, fosfomycin 8 μg/mL (FIG. 1E)
  synergistic/antagonistic potential in growth curves, lower concentration: antagonistic potential
MRSA USA300
  synergistic potential in growth curves: to some degree
